The text below walks through data of patent US8129398B2 (priority 2008, dated 2012).

A value given as a limit tells only on which side of the number the result lay.

The target in the assay is T1, HIV-integrase (Human immunodeficiency virus type 1 group M subtype B, UniProt P12497).
T1 construct: Recombinant integrase (0.26 ng) was incubated with the beads
The experiment in a line: HIV-Integrase Inhibition Activity (SPA bead integration assay with P33 labeled target DNA). The format is biochemical. To be noted: recombinant integrase, class symbols; read-out: in vitro activity. Put shortly:
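Strand integration read as bead-proximity CPM after P33 target DNA (0.1 fmol) and inhibitor were added to washed integrase–substrate DNA complexes on SPA beads. Enzyme bound 90 min at 37° C; EDTA (10 mM final) terminated reaction; IC50 graded A/B/C.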
In the case of `Cc1cc(CNC(=O)c2nc3n(c(=O)c2O)CC2CCC3(NC(=O)[C@H]3CCN(S(C)(=O)=O)C3)CC2)ccc1F` [Example 283, 7,10-Ethanopyrimido[1,2-a]azepine-2-carboxamide, N-[(4-fluoro-3-methylphenyl)methyl]-4,6,7,8,9,10-hexahydro-3-hydroxy-10-[[[(3S)-1-(methylsulfonyl)-3-pyrrolidinyl]carbonyl]amino]-4-oxo-], the IC50 is less than 10 nM. Take `COC(=O)c1cn(C(C)(C)C(=O)NC23CCC(CC2)Cn2c3nc(C(=O)NCc3ccc(F)c(C)c3)c(O)c2=O)nn1` [Example 284, 1H-1,2,3-Triazole-4-carboxylic acid, 1-[2-[[2-[[[(4-fluoro-3-methylphenyl)methyl]amino]carbonyl]-6,7,8,9-tetrahydro-3-hydroxy-4-oxo-7,10-ethanopyrimido[1,2-a]azepin-10(4H)-yl]amino]-1,1-dimethyl-2-oxoethyl]-, methyl ester]: the IC50 is less than 10 nM.

For `Cc1cc(CNC(=O)c2nc3n(c(=O)c2O)CC2CCC3(NC(=O)C(C)(C)n3cc(C(=O)O)nn3)CC2)ccc1F` [Example 285, 1H-1,2,3-Triazole-4-carboxylic acid, 1-[2-[[2-[[[(4-fluoro-3-methylphenyl)methyl]amino]carbonyl]-6,7,8,9-tetrahydro-3-hydroxy-4-oxo-7,10-ethanopyrimido[1,2-a]azepin-10(4H)-yl]amino]-1,1-dimethyl-2-oxoethyl]-], the IC50 was less than 10 nM. Take `CNC(=O)c1cn(C(C)(C)C(=O)NC23CCC(CC2)Cn2c3nc(C(=O)NCc3ccc(F)c(C)c3)c(O)c2=O)nn1` [Example 286, 7,10-Ethanopyrimido[1,2-a]azepine-2-carboxamide, N-[(4-fluoro-3-methylphenyl)methyl]-4,6,7,8,9,10-hexahydro-3-hydroxy-10-[[2-methyl-2-[4-[(methylamino)carbonyl]-1H-1,2,3-triazol-1-yl]-1-oxopropyl]amino]-4-oxo-]: the IC50 is less than 10 nM. For `Cc1cc(CNC(=O)c2nc3n(c(=O)c2O)CC2CCC3(NC(=O)C(C)(C)n3cc(C(=O)N(C)C)nn3)CC2)ccc1F` [Example 287, 7,10-Ethanopyrimido[1,2-a]azepine-2-carboxamide, 10-[[2-[4-[(dimethylamino)carbonyl]-1H-1,2,3-triazol-1-yl]-2-methyl-1-oxopropyl]amino]-N-[(4-fluoro-3-methylphenyl)methyl]-4,6,7,8,9,10-hexahydro-3-hydroxy-4-oxo-] the value was less than 10 nM; for `Cc1cc(CNC(=O)c2nc3n(c(=O)c2O)CC2CCC3(NC(=O)C(C)(C)n3cc(C(=O)N4CCN(C)CC4)nn3)CC2)ccc1F` [Example 288, 7,10-Ethanopyrimido[1,2-a]azepine-2-carboxamide, N-[(4-fluoro-3-methylphenyl)methyl]-4,6,7,8,9,10-hexahydro-3-hydroxy-10-[[2-methyl-2-[4-[(4-methyl-1-piperazinyl)carbonyl]-1H-1,2,3-triazol-1-yl]-1-oxopropyl]amino]-4-oxo-], less than 10 nM; for `CC(=O)N1CC(F)(F)C[C@H]1C(=O)NC12CCC(CC1)Cn1c2nc(C(=O)NCc2ccc(F)c(C)c2)c(O)c1=O` [Example 289, 7,10-Ethanopyrimido[1,2-a]azepine-2-carboxamide, 10-[[[(2S)-1-acetyl-4,4-difluoro-2-pyrrolidinyl]carbonyl]amino]-N-[(4-fluoro-3-methylphenyl)methyl]-4,6,7,8,9,10-hexahydro-3-hydroxy-4-oxo-], less than 10 nM. In the case of `Cc1cc(CNC(=O)c2nc3n(c(=O)c2O)CC2CCC3(NC(=O)[C@@H]3CC(F)(F)CN3S(C)(=O)=O)CC2)ccc1F` [Example 290, 7,10-Ethanopyrimido[1,2-a]azepine-2-carboxamide, 10-[[[(2S)-4,4-difluoro-1-(methylsulfonyl)-2-pyrrolidinyl]carbonyl]amino]-N-[(4-fluoro-3-methylphenyl)methyl]-4,6,7,8,9,10-hexahydro-3-hydroxy-4-oxo-], the IC50 is less than 10 nM. For `Cc1cc(CNC(=O)c2nc3n(c(=O)c2O)CC2CCC3(NC(=O)C(C)n3cncn3)CC2)ccc1F` (centres unmarked) [Example 291, 7,10-Ethanopyrimido[1,2-a]azepine-2-carboxamide, N-[(4-fluoro-3-methylphenyl)methyl]-4,6,7,8,9,10-hexahydro-3-hydroxy-4-oxo-10-[[1-oxo-2-(1H-1,2,4-triazol-1-yl)propyl]amino]-] the value was less than 10 nM; for `Cc1cc(CNC(=O)c2nc3n(c(=O)c2O)CC2CCC3(NC(=O)c3cc(-c4cnn(C)c4)on3)CC2)ccc1F` [Example 292, 7,10-Ethanopyrimido[1,2-a]azepine-2-carboxamide, N-[(4-fluoro-3-methylphenyl)methyl]-4,6,7,8,9,10-hexahydro-3-hydroxy-10-[[[5-(1-methyl-1H-pyrazol-4-yl)-3-isoxazolyl]carbonyl]amino]-4-oxo-], less than 10 nM. `Cc1cc(CNC(=O)c2nc3n(c(=O)c2O)CC2CCC3(NS(=O)(=O)c3cn(C)c(=O)n(C)c3=O)CC2)ccc1F` [Example 293, 7,10-Ethanopyrimido[1,2-a]azepine-2-carboxamide, N-[(4-fluoro-3-methylphenyl)methyl]-4,6,7,8,9,10-hexahydro-3-hydroxy-4-oxo-10-[[(1,2,3,4-tetrahydro-1,3-dimethyl-2,4-dioxo-5-pyrimidinyl)sulfonyl]amino]-]: the IC50 is less than 10 nM. For `CS(=O)(=O)N1[C@@H]2C[C@@H]2C[C@H]1C(=O)NC12CCC(CC1)Cn1c2nc(C(=O)NCc2ccc(F)cc2)c(O)c1=O` [Example 294, 7,10-Ethanopyrimido[1,2-a]azepine-2-carboxamide, N-[(4-fluorophenyl)methyl]-4,6,7,8,9,10-hexahydro-3-hydroxy-10-[[[(1R,3S,5R)-2-(methylsulfonyl)-2-azabicyclo[3.1.0]hex-3-yl]carbonyl]amino]-4-oxo-] the value was less than 10 nM; for `CO[C@H]1C[C@@H](C(=O)NC23CCC(CC2)Cn2c3nc(C(=O)NCc3ccc(F)c(C)c3)c(O)c2=O)N(C(=O)c2cc(C)n(C)n2)C1` [Example 295, 7,10-Ethanopyrimido[1,2-a]azepine-2-carboxamide, 10-[[[(2S,4S)-1-[(1,5-dimethyl-1H-pyrazol-3-yl)carbonyl]-4-methoxy-2-pyrrolidinyl]carbonyl]amino]-N-[(4-fluoro-3-methylphenyl)methyl]-4,6,7,8,9,10-hexahydro-3-hydroxy-4-oxo-], less than 10 nM. To `CO[C@H]1C[C@@H](C(=O)NC23CCC(CC2)Cn2c3nc(C(=O)NCc3ccc(F)c(C)c3)c(O)c2=O)N(C(=O)c2cc(C)on2)C1` [Example 296, 7,10-Ethanopyrimido[1,2-a]azepine-2-carboxamide, N-[(4-fluoro-3-methylphenyl)methyl]-4,6,7,8,9,10-hexahydro-3-hydroxy-10-[[[(2S,4S)-4-methoxy-1-[(5-methyl-3-isoxazolyl)carbonyl]-2-pyrrolidinyl]carbonyl]amino]-4-oxo-] belongs less than 10 nM; to `CO[C@H]1C[C@@H](C(=O)NC23CCC(CC2)Cn2c3nc(C(=O)NCc3ccc(F)c(C)c3)c(O)c2=O)N(C(=O)c2nnc(C)o2)C1` [Example 297, 7,10-Ethanopyrimido[1,2-a]azepine-2-carboxamide, N-[(4-fluoro-3-methylphenyl)methyl]-4,6,7,8,9,10-hexahydro-3-hydroxy-10-[[[(2S,4S)-4-methoxy-1-[(5-methyl-1,3,4-oxadiazol-2-yl)carbonyl]-2-pyrrolidinyl]carbonyl]amino]-4-oxo-], less than 10 nM; to `CO[C@H]1C[C@@H](C(=O)NC23CCC(CC2)Cn2c3nc(C(=O)NCc3ccc(F)c(C)c3)c(O)c2=O)N(C(=O)c2nccn2C)C1` [Example 298, 7,10-Ethanopyrimido[1,2-a]azepine-2-carboxamide, N-[(4-fluoro-3-methylphenyl)methyl]-4,6,7,8,9,10-hexahydro-3-hydroxy-10-[[[(2S,4S)-4-methoxy-1-[(1-methyl-1H-imidazol-2-yl)carbonyl]-2-pyrrolidinyl]carbonyl]amino]-4-oxo-], less than 10 nM. As to `CO[C@H]1C[C@@H](C(=O)NC23CCC(CC2)Cn2c3nc(C(=O)NCc3ccc(F)c(C)c3)c(O)c2=O)N(C(=O)c2ncn(C)n2)C1` [Example 299, 7,10-Ethanopyrimido[1,2-a]azepine-2-carboxamide, N-[(4-fluoro-3-methylphenyl)methyl]-4,6,7,8,9,10-hexahydro-3-hydroxy-10-[[[(2S,4S)-4-methoxy-1-[(1-methyl-1H-1,2,4-triazol-3-yl)carbonyl]-2-pyrrolidinyl]carbonyl]amino]-4-oxo-], the IC50 was less than 10 nM. In the case of `C=C[C@H]1C[C@@]1(NC(C)=O)C(=O)NC12CCC(CC1)Cn1c2nc(C(=O)NCc2ccc(F)c(C)c2)c(O)c1=O` [Example 300, 7,10-Ethanopyrimido[1,2-a]azepine-2-carboxamide, 10-[[[(1S,2R)-1-(acetylamino)-2-ethenylcyclopropyl]carbonyl]amino]-N-[(4-fluoro-3-methylphenyl)methyl]-4,6,7,8,9,10-hexahydro-3-hydroxy-4-oxo-], the IC50 is less than 10 nM. With `Cc1cc(CNC(=O)c2nc3n(c(=O)c2O)CC2CCC3(NC(=O)[C@H]3CCN(C(=O)c4cc(C)n(C)n4)C3)CC2)ccc1F` [Example 301, 7,10-Ethanopyrimido[1,2-a]azepine-2-carboxamide, 10-[[[(3S)-1-[(1,5-dimethyl-1H-pyrazol-3-yl)carbonyl]-3-pyrrolidinyl]carbonyl]amino]-N-[(4-fluoro-3-methylphenyl)methyl]-4,6,7,8,9,10-hexahydro-3-hydroxy-4-oxo-], the IC50 fell in the range of 10 to 100 nM. For `COCC1(C(=O)NC23CCC(CC2)Cn2c3nc(C(=O)NCc3ccc(F)c(C)c3)c(O)c2=O)CC1` [Example 302, 7,10-Ethanopyrimido[1,2-a]azepine-2-carboxamide, N-[(4-fluoro-3-methylphenyl)methyl]-4,6,7,8,9,10-hexahydro-3-hydroxy-10-[[[1-(methoxymethyl)cyclopropyl]carbonyl]amino]-4-oxo-] the value was less than 10 nM.
